Source: patent publication US20190070174A1, “METHODS OF TREATING NEURODEGENERATIVE DISEASES” (priority 2016, published 2019)

Assays:
Hsf1 = experiment: Subchronic treatment of Q84 mice, Western blot of brainstem soluble fractions; type: in vivo, mouse
Protocol: (§1) YACMJD84.2 transgenic mice were housed in cages with a maximum number of five animals and maintained in a standard 12-hour light/dark cycle with food and water ad libitum. Genotyping was performed using DNA isolated from tail biopsy at the time of weaning, and genotypes of all studied mice were confirmed using DNA extracted from tails collected post-mortem. […] Five hours after the final injection, mice were anesthetized with ketamine/xylazine and perfused transcardially with phosphate buffered saline (PBS) (for RNA and protein studies), and brains were immediately placed on dry ice and stored at −80° C.
(§2) Protein lysates from cell cultures, mouse brain slices or mouse brains were obtained by lysis in RIPA buffer containing protease inhibitors (Complete, Roche Diagnostics), followed by sonication and centrifugation. The supernatants (soluble protein fractions) were collected, total protein concentration was determined using the BCA method (Pierce) and then stored at −80° C. […] Pellets corresponding to insoluble protein fractions were resuspended in 100 μL of Laemmli buffer 2× and boiled for 10 min. Insoluble proteins were then quantified, and 100 μg were loaded in a filter trap assay apparatus and transferred to a nitrocellulose membrane (0.45 μm pore) that was incubated overnight with rabbit anti-MJD antibody (1:5000) at 4° C. Bound primary antibodies were visualized by incubation with a peroxidase-conjugated anti-mouse or anti-rabbit secondary antibody (1:10000; Jackson Immuno Research Laboratories) followed by treatment with the ECL-plus reagent (Western Lighting, PerkinElmer) and exposure to autoradiography films. Band intensity was quantified by densitometry using ImageJ.

Hsp70 = experiment: as above; type: in vivo, mouse
Protocol: as §1, §2

Hsp40 = experiment: as above; type: in vivo, mouse
Protocol: as §1, §2

Hsp90a = experiment: as above; type: in vivo, mouse
Protocol: as §1, §2

Hsp90β = experiment: as above; type: in vivo, mouse
Protocol: as §1, §2

Rad23b = experiment: as above; type: in vivo, mouse; conditions: Q84 mice vs vehicle
Protocol: as §1, §2

Rad23a = experiment: as above; type: in vivo, mouse; conditions: Q84 mice vs vehicle
Protocol: as §1, §2

human ATXN3 = experiment: Subchronic treatment of Q84 mice, immunoblot of soluble lysates; type: in vivo; conditions: 15 mg/kg IP daily for 10 days
Protocol: as §1, §2
Five hours after the final injection on day 10, mice were sacrificed and brains collected for total protein and RNA extraction from different regions: brainstem, cerebellum, cervical spinal cord, and forebrain.

## O=C1CCc2ccc(OCCCCN3CCN(c4cccc(Cl)c4Cl)CC3)cc2N1 [aripiprazole]
Hsf1
  Heat shock transcription factor (Hsf1) level: increased
Hsp70
  levels of Hsp70 compared with vehicle-treated mice: 62%
Hsp40
  levels of Hsp40: No differences
Hsp90a
  levels of Hsp90a compared with vehicle-treated mice: 79%
Hsp90β
  levels of Hsp90β compared with vehicle-treated mice: 22%
Rad23b
  levels of Rad23b: trend toward decreased levels
Rad23a
  levels of Rad23a: trend toward decreased levels
Human ATXN3; brainstem, Q84 mice
  HMW ATXN3 species, of levels in vehicle-treated mice: 44%
Human ATXN3; soluble lysates
  levels of monomeric human ATXN3: trend toward decreased levels
